Assay results published in patent US20170044152A1, “COMPOUNDS THAT MODULATE INTRACELLULAR CALCIUM” (CalciMedica, Inc., priority 2012, published 2017).

molecular target: T1, Orai1/STIM1 (Homo sapiens, UniProt Q96D31); experiment: Fluorescence-based assay of store-operated calcium entry in Orai1/STIM1 stable cells; format: cell-based; settings: HEK-293 cells stably expressing human STIM1 and Orai1; Peak-Basal fluo-4 signal; Table iv; read-out: Orai1/STIM1 (IC50, μmol)
T1 construct: c-myc (C); expressed in transfected cells; host or cells: HEK-293 cells stably overexpressing human STIM1, stably transfected with pcDNA3.1-Orai1-cmyc
T1 sequence (Q96D31 whole entry): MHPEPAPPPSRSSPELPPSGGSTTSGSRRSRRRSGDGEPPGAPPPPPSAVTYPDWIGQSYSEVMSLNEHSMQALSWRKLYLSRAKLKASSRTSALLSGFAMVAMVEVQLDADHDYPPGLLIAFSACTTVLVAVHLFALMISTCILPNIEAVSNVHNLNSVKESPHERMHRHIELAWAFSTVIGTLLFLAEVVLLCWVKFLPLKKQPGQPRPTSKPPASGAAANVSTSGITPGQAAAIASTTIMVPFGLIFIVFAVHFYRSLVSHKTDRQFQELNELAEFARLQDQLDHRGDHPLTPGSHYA
Method: A. Fluorescence-based Assay of Store-Operated Calcium Entry in Orai1/STIM1 Stable Cells.
Cells stably expressing recombinant human STIM1 and Orai1 are generated by transfecting a human Orai1 expression plasmid (pcDNA3.1-Orai1-cmyc) into HEK-293 cells stably overexpressing human ST1M1 (Roos et al. 2005 JCB 169(3): 435-445). Colonies of cells stably expressing both STIM1 and Orai1 proteins are selected and then subcloned by limiting dilution. Cells were cultured at 37° C./6% CO2 in complete medium with 10% FBS and appropriate selection markers.
The day prior to performing the assay Orai1/STIM1 stable cells are plated in 50 μL of complete medium at 90-95% confluence in a 384 well plate. Cells are grown at 37° C./6% CO2 overnight. […] The initial baseline fluorescence signal is then measured with a FLIPR^384 (Molecular Devices) plate reader. Calcium entry is initiated by adding 5 μl of 10× CaCl2 (10 mM) in HBSS, and changes in cellular fluorescence are measured with the FLIPR^384 plate reader. In each well, the magnitude of the fluorescence signal as a result of calcium entry into the cell is determined by calculating the difference between the peak fluorescence signal measured after calcium addition and the initial baseline fluorescence signal (designated Peak-Basal). […]

SMILES | IC50 [nM]
Cc1cccc(F)c1C(=O)Nc1ccc(-c2cc(-c3ccccc3F)nn2C)s1 [Compound 23] | 600 to 1200

test system: RBL-2H3 cells; experiment: Fluorescence-based assay of store-operated calcium entry in RBL-2H3 cells; format: cell-based; settings: Rattus norvegicus, Table v, read-out: IC50 (nM) RBL
Method: B. Fluorescence-based Assay of Store-Operated Calcium Entry in RBL-2H3 Cells.
RBL-2H3 cells are obtained from ATCC and maintained in complete medium with 10% FBS at 37° C./6% CO2.
The day prior to performing the assay, RBL-2H3 cells are plated in 50 μL of complete medium in a 384 well plate. Cells are grown at 37° C./6% CO2 overnight and grow to 50-60% confluence by the next day. On the assay day, 1.5 μM Fluo-4-AM dye (Invitrogen) in complete medium is added and incubated for 1 hour at RT. Cells are washed twice in Ca^2+-free HBSS buffer and 35 μL Ca^2|-free HBSS buffer is added to each well. 10 μL of a test compound prepared in a Ca^2+-free HBSS solution at […] of the desired concentration is added to a well and incubated for 5 minutes at RT. 10 μL of thapsigargin prepared in a Ca^2+-free HBSS solution at 5.5× of the desired concentration (5.5 uM) is added to each well and incubated for an additional 25 minutes. The initial baseline fluorescence signal is measured with a FLIPR^384 (Molecular Devices) plate reader. 5 μL of 12× calcium in HBSS (12 mM) is added and changes in cellular fluorescence arc measured with the FLIPR^384 plate reader. In each well, the change in the fluorescent signal as a function of time due to calcium entry into the cell is determined by calculating the difference between the fluorescent signal measured 7 seconds after calcium addition and the initial baseline fluorescence signal at time zero (t=0). This parameter is designated Upslope. The IC50 value is calculated as the concentration at which 50% of the Upslope is inhibited.

SMILES | IC50 [nM]
C=Cn1nc(-c2nccs2)cc1-c1ccc(NC(=O)c2c(F)cccc2F)s1 [Compound 5, (2,6-difluorophenyl)-N-[5-(3-(1,3-thiazol-2-yl)-1-vinylpyrazol-5-yl](2-thienyl)] carboxamide] | 106

same assay, conditions: Rattus norvegicus, thapsigargin, Upslope of fluo-4 signal, Table iii, read-out: RBL-2H3 (IC50, μmol)

SMILES | IC50 [nM]
CCc1oc(C(F)(F)F)nc1-c1ccc(NC(=O)c2c(F)cccc2F)nc1 [Compound 25, N-(5-(5-ethyl-2-(trifluoromethyl)oxazol-4-yl)pyridin-2-yl)-2,6-difluorobenzamide] | < 600
Cc1oc(C(F)(F)F)nc1-c1ccc(NC(=O)c2cccc(F)c2C)nc1 [Compound 19, 3-fluoro-2-methyl-N-(5-(5-methyl-2-(trifluoromethyl)oxazol-4-yl)pyridin-2-yl)benzamide] | < 600
Cc1oc(C(F)(F)F)nc1-c1ccc(NC(=O)c2c(F)cncc2F)nc1 [Compound 17, 3,5-difluoro-N-(5-(5-methyl-2-(trifluoromethyl)oxazol-4-yl)pyridin-2-yl)isonicotinamide] | < 600
Cc1ccccc1C(=O)Nc1ccc(-c2nc(C(F)(F)F)oc2C)cn1 [Compound 15] | < 600
Cc1oc(C(F)(F)F)nc1-c1ccc(NC(=O)c2ccccc2F)nc1 [Compound 16] | < 600
Cc1oc(C(F)(F)F)nc1-c1ccc(NC(=O)c2c(F)cccc2F)nc1 [Compound 14, 2,6-difluoro-N-(5-(5-methyl-2-(trifluoromethyl)oxazol-4-yl)pyridin-2-yl)benzamide] | < 600
CCc1oc(C(F)(F)F)nc1-c1ccc(NC(=O)c2ccccc2F)nc1 [Compound 24, N-(5-(5-ethyl-2-(trifluoromethyl)oxazol-4-yl)pyridin-2-yl)-2-fluorobenzamide] | < 600

same assay, conditions: Rattus norvegicus, thapsigargin, Upslope of fluo-4 signal, Table iv, read-out: RBL-2H3 (IC50, μmol)

SMILES | IC50 [nM]
Cn1nc(-c2nccs2)cc1-c1ccc(NC(=O)c2ccc(F)cc2F)s1 [Compound 7, (2,4-difluorophenyl)-N-[5-[1-methyl-3-(1,3-thiazol-2-yl)pyrazol-5-yl](2-thienyl)] carboxamide] | < 600
Cn1nc(-c2ccccn2)cc1-c1ccc(NC(=O)c2c(F)cccc2F)s1 [Compound 28, 2,6-difluoro-N-(5-(1-methyl-3-(pyridin-2-yl)-1H-pyrazol-5-yl)thiophen-2-yl)benzamide] | < 600
Cn1nc(-c2ccccn2)cc1-c1ccc(NC(=O)c2c(F)cc(F)cc2F)s1 [Compound 27, 2,4,6-trifluoro-N-(5-(1-methyl-3-(pyridin-2-yl)-1H-pyrazol-5-yl)thiophen-2-yl)benzamide] | < 600
Cn1nc(-c2nccs2)cc1-c1ccc(NC(=O)c2c(F)cccc2F)s1 [Compound 6, (2,6-difluorophenyl)-N-[5-[1-methyl-3-(1,3-thiazol-2-yl)pyrazol-5-yl](2-thienyl)] carboxamide] | < 600
Cc1cccc(F)c1C(=O)Nc1ccc(-c2cc(-c3ccccc3F)nn2C)s1 [Compound 23] | < 600
Cn1nc(-c2nccs2)cc1-c1ccc(NC(=O)c2c(F)cc(F)cc2F)s1 [Compound 10, (2,4,6-trifluorophenyl)-N-[5-[1-methyl-3-(1,3-thiazol-2-yl)pyrazol-5-yl](2-thienyl)] carboxamide] | < 600
CCn1nc(-c2nccs2)cc1-c1ccc(NC(=O)c2c(F)cc(F)cc2F)s1 [Compound 16] | < 600
CCn1nc(-c2nccs2)cc1-c1ccc(NC(=O)c2c(F)cccc2F)s1 [Compound 15] | < 600

test system: JR251; experiment: JR251 IC50 (Table v); format: cell-based; settings: not given

SMILES | IC50 [nM]
C=Cn1nc(-c2nccs2)cc1-c1ccc(NC(=O)c2c(F)cccc2F)s1 [Compound 5, (2,6-difluorophenyl)-N-[5-(3-(1,3-thiazol-2-yl)-1-vinylpyrazol-5-yl](2-thienyl)] carboxamide] | 1210
